# Laboratory results reported in US4216206A (priority 1977, dated 1980).
# System: mouse
# Assay: acute toxicity in the mouse over 7 days
# Type: in vivo
# Conditions: i.v.
# Protocol: The acute toxicities of the antibiotics were determined in the mouse over 7 days.
substance,measurement,value
Thiostrepton,LD50,< 100 mg/kg
